A short description of data set [1]: Solubility of CBD in the Franz cell Receptor Fluid. Type of data set: physicochemical. Particulars: aqueous with cosolvent or surfactant or cyclodextrin; PBS, 0.01 wt % NaN3, 4 wt % hydroxypropyl-β-cyclodextrin, 1 wt % Brij O20.
Data set [2] concerns anandamide. Conditions: rat basophilic leukemia cells; cited from earlier work.
Data set [3] deals with T1, human vanilloid receptor type 1 (VR1) (Homo sapiens, UniProt Q8NER1).
T1 construct: expressed in transfected cells; host or cells: HEK cells transfected with hVR1 (HEK-hVR1)
T1 sequence (Q8NER1 whole entry): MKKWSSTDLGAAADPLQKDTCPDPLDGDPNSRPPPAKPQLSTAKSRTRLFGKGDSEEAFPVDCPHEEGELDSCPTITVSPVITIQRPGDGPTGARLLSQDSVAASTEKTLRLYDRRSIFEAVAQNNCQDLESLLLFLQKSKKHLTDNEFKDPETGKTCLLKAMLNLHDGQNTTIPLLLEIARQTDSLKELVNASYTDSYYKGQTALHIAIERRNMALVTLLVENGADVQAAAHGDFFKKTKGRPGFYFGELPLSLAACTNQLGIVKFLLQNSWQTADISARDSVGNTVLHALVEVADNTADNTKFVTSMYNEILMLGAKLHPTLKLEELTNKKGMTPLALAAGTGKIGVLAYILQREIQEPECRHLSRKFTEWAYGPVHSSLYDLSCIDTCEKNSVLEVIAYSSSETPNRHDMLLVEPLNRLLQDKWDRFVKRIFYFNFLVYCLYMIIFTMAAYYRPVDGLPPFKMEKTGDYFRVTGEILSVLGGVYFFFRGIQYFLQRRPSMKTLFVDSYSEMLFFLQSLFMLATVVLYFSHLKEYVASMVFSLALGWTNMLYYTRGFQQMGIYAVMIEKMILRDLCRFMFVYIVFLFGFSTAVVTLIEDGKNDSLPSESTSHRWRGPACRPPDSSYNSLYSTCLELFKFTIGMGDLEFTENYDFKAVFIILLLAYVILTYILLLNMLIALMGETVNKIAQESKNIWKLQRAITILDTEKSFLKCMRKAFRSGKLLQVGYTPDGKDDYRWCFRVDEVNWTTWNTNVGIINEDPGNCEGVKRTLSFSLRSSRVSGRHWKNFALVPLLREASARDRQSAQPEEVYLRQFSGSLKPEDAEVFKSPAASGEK
Particulars: HEK-hVR1 transfected cells; cited from earlier work.

For data set [4] the following is noted: in ethanol, reported value; cited from earlier work.
In data set [5] the test system is cardiac inflammation produced by doxorubicin. Conditions: 5 mg/kg i.v. once daily for 4 weeks, rats; cited from earlier work.
Data set [6] can be described thus: Solubility of CBD in solvents (weight to weight). Type of data set: physicochemical. On the procedure:
First, the solubility of cannabidiol (CBD) was assessed. The powder looked granulated under the microscope. […] The conclusions from the solubility studies were that OA and IPA were very good solvents and it was surprising that IPA was so much better than ethanol.
Solubility studies: CBD dissolved at the 10% level in AE and barely 9.5% in IPM. Further exploration was not conducted due to the small amount of drug API available for non-GMP work. CBD is soluble greater than 10% but probably not in excess of 20%, as the time to dissolve additional CBD was taking considerably longer.

In data set [7] the test system is ovalbumin-induced airway obstruction. Particulars: 1 mg/kg i.v., sensitized guinea-pigs; cited from earlier work.
Data set [8] is described as follows: Discoloration of CBD solutions and formulations on standing. Particulars: end of day. Type of data set: physicochemical. An excerpt:
The CBD2 material dissolved like the CBD1 therefore the CBD2 is CBD without the discoloration properties of CBD1.

Consider three compounds from patent US20210401768A1, “FORMULATIONS OF CANNABINOIDS FOR THE TREATMENT OF DERMATITIS AND INFLAMMATORY SKIN DISEASES” (Botanix Pharmaceuticals Ltd., priority 2017, published 2021).

Bounds are passed on as bounds.

`C=C(C)C1CCC(C)=CC1c1c(O)cc(CCCCC)cc1O` (stereo not drawn) [CBD, 2-[3-methyl-6-(1-methylethenyl)-2-cyclohexen-1-yl]-5-pentyl-1,3-benzenediol] gave a solubility in data set [1] greater than 50 µg/mL. Besides, the inhibition of anandamide result in data set [2] is “inhibit anandamide”. Besides, the “stimulation of VR1” value in data set [3] is “maximum effect similar in efficacy to that of capsaicin”. Also, in data set [4], the “reported solubility of CBD” value was 3.5%. In data set [5], the “effect on cardiac inflammation produced by doxorubicin” value is listed as “attenuated cardiac inflammation”. In addition, the “solubility (weight to weight) of CBD” value was 6-7% in data set [6] (in ethanol); 3-4% in data set [6] (in hexamethyldisiloxane (HDS)); “greater than 14%” in data set [6] (in isopropyl alcohol (IPA)); 3-4% in data set [6] (in mineral oil); “greater than 8%” in data set [6] (in oleyl alcohol (OA), did not go higher in studies); 6-7% in data set [6] (in propylene glycol (PG)). Also, the “solubility of CBD” value in data set [6] (in isopropyl myristate (IPM)) is recorded as roughly 9.5%. Moreover, in data set [7], the “effect on ovalbumin-induced airway obstruction” value is reported as “attenuated ovalbumin-induced airway obstruction”.

In the case of `C=C(C)[C@@H]1CCC(C)=C[C@H]1c1c(O)cc(CCCCC)cc1O` [CBD2], the discoloration of solution entry in data set [8] is given as “None of the CBD2 solutions were colored at the end of day 1”.

Turning to `C=C(C)[C@@H]1CCC(C)=C[C@H]1c1c(O)cc(CCCCC)cc1O` [CBD1], the discoloration of solution entry in data set [8] was “colored by the end of the day”.

What is called solubility is the concentration that dissolves in the medium under given conditions. A low value points to a poorly soluble substance.
